Values of other authors as cited in patent US10894072B2, “Compositions and methods for treating fibromyalgia” (Quality IP Holdings, LLC, priority 2017, dated 2021).

Legend:
[1] = test system: hGH; conditions: for Increase in hGH: other amino acids
[2] = subcutaneous injection of 0.06 IU, hGH deficient subjects
[3] = test system: fibromyalgia
[4] = test system: fibromyalgia; remark: listed apart in the source
[5] = test system: IGF-1 and IGF-BP3; conditions: patients with fibromyalgia, 4 days treatment
[6] = hGH-deficient adults, within months of treatment
[7] = test system: fibromyalgia; remark: listed apart in the source

## N=C(N)NCCC[C@H](N)C(=O)O [arginine]
[1]; 30 g, males
  Elevation of serum hGH levels: 8.6 fold
[1]; intravenous infusion of 183 mg/kg body weight, females
  Increase of hGH levels: > 20 fold

## N[C@@H](Cc1c[nH]cn1)C(=O)O [histidine]
[1]
  Increase in hGH: marked increases

## NCCCC[C@H](N)C(=O)O [lysine]
[1]
  Increase in hGH: marked increases

## CSCC[C@H](N)C(=O)O [methionine]
[1]
  Increase in hGH: marked increases

## NCCC[C@H](N)C(=O)O [ornithine]
[1]
  Increase in hGH: marked increases

## N[C@@H](Cc1ccccc1)C(=O)O [phenylalanine]
[1]
  Increase in hGH: marked increases

## hGH: human growth hormone, given by injection in cited studies
[2]
  Mean levels of hGH reached: 0.4 ng/mL
[3]; hGH added to standard treatment, sustained action over time
  Pain: effective in reducing pain
[3]; low-dose hGH added to standard treatment
  FIQ scores compared with placebo group: significantly improved
[4]; at nine months
  FIQ score and tender point score over the placebo group: significant improvement
[4]; daily hGH injections
  IGF-1 levels: prompt and sustained increase
[5]
  Plasma IGF-1 and IGF-BP3 levels: increase
[6]
  Lean body mass, skin thickness and muscle mass: gains
[7]; end of one-year study, subcutaneous hGH added to standard therapy
  Reduction in the mean number of tender points (pairs) compared to the control group: 60%
[7]; human, in vivo
  Tolerability: well tolerated
